PubChem BioAssay (NCI)
Where “and” joins values, the source holds several entries; their conditions need not be identical. Equal values may be shown once.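 How tested: cells in 96-well plates exposed to compound for 48 hours at five concentrations. Here, GI50 denotes the concentration required for 50% inhibition of growth. TGI is the concentration that stops growth completely.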

Legend:
Test in all cases: growth of human tumour cells (NCI), 48 h
CCRF-CEM leukemia = system: CCRF-CEM leukemia
COLO 205 colon = system: COLO 205 colon
LOX IMVI melanoma = system: LOX IMVI melanoma
NCI-H460 lung = system: NCI-H460 lung
NCI-H522 lung = system: NCI-H522 lung
NCI/ADR-RES ovarian = system: NCI/ADR-RES ovarian
OVCAR-4 ovarian = system: OVCAR-4 ovarian
OVCAR-8 ovarian = system: OVCAR-8 ovarian
SK-MEL-2 melanoma = system: SK-MEL-2 melanoma
UO-31 renal = system: UO-31 renal

SMILES	GI50 (CCRF-CEM leukemia)	TGI (CCRF-CEM leukemia)	GI50 (COLO 205 colon) [µM]	TGI (COLO 205 colon)	GI50 (LOX IMVI melanoma)	TGI (LOX IMVI melanoma)	GI50 (NCI-H460 lung) [µM]	TGI (NCI-H460 lung)	GI50 (NCI-H522 lung) [µM]	TGI (NCI-H522 lung)	GI50 (NCI/ADR-RES ovarian) [µM]	TGI (NCI/ADR-RES ovarian)	GI50 (OVCAR-4 ovarian) [µM]	TGI (OVCAR-4 ovarian)	GI50 (OVCAR-8 ovarian)	TGI (OVCAR-8 ovarian)	GI50 (SK-MEL-2 melanoma) [µM]	TGI (SK-MEL-2 melanoma)	GI50 (UO-31 renal) [µM]	TGI (UO-31 renal)
Nc1nc2cc(CC[C@H]3C[C@@H](n4ccc5c(N)ncnc54)[C@H](O)[C@@H]3O)ccc2cc1Br	12.3 µM	> 100 µM	11.3	37.3 µM	3.95 µM	22.6 µM	10.9	26.5 µM	9.26	28.8 µM	10.5	26.9 µM	2.06	19.1 µM	7.73 µM	34.1 µM	10.9	25.1 µM	2.92	18 µM
COc1ccc(/C(C#N)=C/c2cc(OC)c(OC)c(OC)c2)cc1	22.1 µM	78.6 µM	20.1	64.8 µM	22.2 µM	> 100 µM	29.6	> 100 µM	15.7	56.3 µM	13.2	65.1 µM	38.4	> 100 µM	30.7 µM	> 100 µM	21.9	82.2 µM	15.3	68.8 µM
COC1=CC(c2ccc[nH]2)=N/C1=C\c1[nH]c(C)c(CC(=O)OCc2ccccc2)c1C	0.184 µM	1.94 µM	0.24	1.27 µM	0.214 µM	0.753 µM	0.327	1.72 µM	0.273	1.86 µM	0.444	1.97 µM	0.256	5.17 µM	0.362 µM	1.27 µM	0.198	0.51 µM	0.193	0.398 µM
COC(=O)c1c2c(c(C)[n+]([O-])c1C)C(=O)C=C(NCc1cccc(Cl)c1)C2=O	0.444 µM	–	0.292	0.961 µM	0.0687 µM	1.35 µM	0.381	1.6 µM	0.261	1.7 µM	0.307	1.79 µM	0.21	0.938 µM	0.275 µM	1.21 µM	1.04	2.77 µM	1.09	2.35 µM
CC(C)=CC(=O)N[C@H]1CC[C@]2(C)C3CC[C@]4(C)C(C(C)N(C)C)=CCC4C3CCC2[C@H]1O (stereo partly specified)	2.92 µM	14.3 µM	1.69	3.3 µM	1.62 µM	3.49 µM	1.87	3.75 µM	5.61	20.7 µM	10.3	25.5 µM	5.88	20.8 µM	13.9 µM	> 51.8 µM	12.4	28.7 µM	1.88	4.51 µM
NC(N)=NC(N)=NCCCc1ccco1	21.8 µM	121 µM	> 500	> 500 µM	52.2 µM	121 µM	143	> 500 µM	> 500	> 500 µM	66.4	247 µM	96.8	268 µM	31.8 µM	190 µM	47.5	115 µM	65.2	195 µM
CCC1(OC(=O)CN)C(=O)OCc2c1cc1n(c2=O)Cc2cc3ccccc3nc2-1 (stereo unspecified)	0.00116 µM	0.534 µM and 0.677 µM	0.276	0.667 µM	0.0089 µM	–	0.00329	–	0.0362	0.59 µM and 0.624 µM	0.0173	0.137 µM and 0.0776 µM	0.256	0.994 µM and 4.55 µM	0.04 µM and 0.0227 µM	–	0.492	0.932 µM and 0.407 µM	–	0.174 µM
Nc1nc(SCc2ccccc2Cl)cc(C(=O)O)n1	–	> 100 µM	–	> 100 µM	–	> 100 µM	–	> 100 µM	–	> 100 µM	–	> 100 µM	–	> 100 µM	–	> 100 µM	–	> 100 µM	–	> 100 µM
CC(=O)O[C@H]1C(=O)[C@@]2(C)[C@H]([C@H](OC(=O)c3ccccc3)[C@]3(O)C[C@H](OC(=O)[C@H](OC(=O)OC[C@H]4COC(C)(C)O4)[C@@H](NC(=O)c4ccccc4)c4ccccc4)C(C)=C1C3(C)C)[C@]1(OC(C)=O)CO[C@@H]1C[C@@H]2O	0.0265 µM	> 33.3 µM	0.0216	> 33.3 µM	0.014 µM	> 33.3 µM	0.00601	> 33.3 µM	0.0324	> 33.3 µM	> 33.3	> 33.3 µM	> 33.3	> 33.3 µM	0.0598 µM	> 33.3 µM	0.0978	> 33.3 µM	0.738	> 33.3 µM
CO[C@H]1C[C@](C)(O)Cc2cc3c(c(O)c21)C(=O)c1c(O)cc2c(c1C3=O)O[C@@H]1O[C@@]2(C)[C@H](O)[C@@H](N(C)C)[C@@H]1O	0.18 µM	1.22 µM and 4.21 µM	1.46	2.97 µM and 8.57 µM	0.509 µM and 1.06 µM	2.15 µM and 2.71 µM	0.035	1.47 µM and 2.1 µM	1.42	3.67 µM and 8.17 µM	–	27.8 µM	1.87	3.46 µM and 12.6 µM	1.07 µM	3.36 µM and 4.97 µM	–	5.09 µM and 5.82 µM	1.33	2.85 µM and 7.08 µM
CC(=O)/C=C/C1=C(c2csc3ccccc23)c2ccccc2CC1	23.2 µM	79.4 µM	20.5	64.8 µM	16.9 µM	48.4 µM	–	–	14.2	67.9 µM	21.8	72.7 µM	17.8	> 100 µM	30.4 µM	> 100 µM	15.2	40.9 µM	11.6	41.2 µM
C=C1C(=O)O[C@H]2[C@H]1CC/C(COC(=O)CCCc1c[nH]c3ccccc13)=C\CC[C@@]1(C)O[C@@H]21	0.715 µM	7.5 µM	1.86	3.79 µM	1.55 µM	2.95 µM	4.54	19.2 µM	1.57	3.47 µM	2.9	10.9 µM	1.66	3.28 µM	3.38 µM	11.2 µM	1.96	5.39 µM	1.41	2.73 µM
C=C1C(=O)O[C@H]2[C@H]1CC/C(COC(=O)OC/C1=C/CC[C@@]3(C)O[C@H]3[C@H]3OC(=O)[C@@H](CN(C)C)[C@@H]3CC1)=C\CC[C@@]1(C)O[C@@H]21	0.247 µM	0.733 µM	0.487	1.93 µM	1.47 µM	2.97 µM	5.38	19.9 µM	0.214	0.513 µM	12.8	29.7 µM	1.42	3.1 µM	2.31 µM	10.2 µM	2.27	5.88 µM	1.04	2.25 µM
CCCCCCCCCCCCCCCCOP(=O)([O-])OCC[N+](C)(C)C	1.09 µM and 9.72 µM	–	0.424	–	1.36 µM	–	0.518	–	0.885	–	11.1	23.2 µM and 58.7 µM	2.88	12.6 µM and 38.6 µM	3.31 µM	11.8 µM and 48.3 µM	2.36	7.05 µM and 46.9 µM	1.47	–
COC(=O)C(=O)C(C(=O)C(=O)Nc1ccccc1OC)c1nc2ccc([N+](=O)[O-])cc2[nH]c1=O (stereo unspecified)	–	> 100 µM	–	–	–	> 100 µM	–	> 100 µM	–	> 100 µM	–	> 100 µM	–	> 100 µM	–	> 100 µM	–	> 100 µM	–	> 100 µM
Cn1nc(C(F)(F)F)c(-c2cc(C(F)(F)F)cc(C(F)(F)F)c2)c1-c1ccc(OCc2ccc(Cl)cc2)cc1O	2.26 µM	14.9 µM	1.7	3.36 µM	1.98 µM	4.31 µM	2.16	5.5 µM	1.94	9.16 µM	2.81	9.8 µM	2.68	13.3 µM	2.92 µM	12.1 µM	1.73	4.09 µM	1.89	4.28 µM
O=C(c1ccco1)c1c(C(F)(F)F)n([O-])c2cc(C(F)(F)F)ccc2[n+]1=O	< 0.0434 µM	0.352 µM	0.475	2 µM	0.299 µM	0.73 µM	0.537	1.8 µM	0.54	1.17 µM	0.801	4.33 µM	1.35	3.94 µM	0.688 µM	–	2.62	6.73 µM	0.517	1.02 µM
CCCCCCCC(=O)SCC/C=C/[C@@H]1CC(=O)NCc2nc(cs2)C2=N[C@@](C)(CS2)C(=O)N[C@@H](C(C)C)C(=O)N1	0.0265 µM	> 100 µM	0.0114	0.0302 µM	0.0198 µM	0.0468 µM	0.0335	> 100 µM	0.0278	11.1 µM	26.7	> 100 µM	0.0212	> 100 µM	0.0234 µM	16.7 µM	0.0304	0.597 µM	0.741	21.2 µM
COc1cc(OC)c(OC)cc1/C=C/c1cnnc2ccccc12	–	> 10 µM	–	> 10 µM	–	> 10 µM	–	> 10 µM	–	> 10 µM	–	> 10 µM	–	> 10 µM	–	> 10 µM	–	> 10 µM	–	> 10 µM
CC([C@H]1CC=C2C3CCC4=C[C@@H](N(C)C)CC[C@]4(C)C3CC[C@@]21C)N(C)C (stereo partly specified)	2.11 µM	7.79 µM	1.7	3.37 µM	1.6 µM	3.69 µM	2.07	5.48 µM	7.12	25 µM	4.25	18.2 µM	3.26	21.9 µM	5.85 µM	22.3 µM	8.23	21 µM	1.95	5.54 µM
Cc1nc2ccccn2c1NC(=O)NNC(=S)Nc1ccc(F)cc1	> 100 µM	> 100 µM	> 100	> 100 µM	> 100 µM	> 100 µM	> 100	> 100 µM	> 100	> 100 µM	> 100	> 100 µM	> 100	> 100 µM	> 100 µM	> 100 µM	> 100	> 100 µM	> 100	> 100 µM
CC(=O)OC12c3ccccc3-c3ccccc3C1C(C(=O)O)C2C(=O)O (stereo unspecified)	–	> 10 µM	–	> 10 µM	–	> 10 µM	–	> 10 µM	–	> 10 µM	–	> 10 µM	–	> 10 µM	–	> 10 µM	–	> 10 µM	–	> 10 µM
Cc1ccc2c(c1)C(=O)c1c-2c(OCCCN(C)C)nc2ccccc12	1.62 µM	9.13 µM	1.16	3.82 µM	1.18 µM	2.52 µM	0.976	3.2 µM	1.35	3.72 µM	1.24	6.53 µM	2.73	13.1 µM	2.93 µM	17 µM	11.7	27.4 µM	1.13	8.26 µM
O=C(Nc1ccc(F)cc1)Nc1ccc(Br)c(C(F)(F)F)c1	2.27 µM	6.53 µM	1.72	3.27 µM	2.51 µM	7.39 µM	2.53	10.4 µM	1.56	5.87 µM	2.51	10.1 µM	2.13	9.75 µM	2.95 µM	15.2 µM	2.38	6.19 µM	2.35	10.6 µM
Cc1[nH]c(N)nc(=S)c1CCC(=O)O	–	> 100 µM	–	> 100 µM	–	> 100 µM	–	> 100 µM	–	> 100 µM	–	> 100 µM	–	> 100 µM	–	> 100 µM	–	> 100 µM	–	> 100 µM
Clc1ccc2nc(CI)c(CI)nc2c1	2.3 µM	15.3 µM	1.77	3.28 µM	1.64 µM	3.37 µM	10.1	27.1 µM	–	–	6.8	> 57.7 µM	2.45	6.22 µM	2.87 µM	> 23.5 µM	6.45	> 32.6 µM	1.72	3.5 µM
